Assay results reported in publication PMC5380659, “Unique charge-dependent constraint on collagen recognition by integrin α10β1” (Matrix Biology, 2017).
“Also recorded” adds a separate entry of the source.

Experiments:
C2C12-α10β1 cells [1] = assay: xCELLigence real-time adhesion of C2C12-α10β1 cells; format: cell-based, mouse; conditions: 2.5 × 10^4 cells/well, 2 mM Mg^2 +, over 1 h, Fig. 3A
Protocol: Fig. 3 Binding of α10β1-transfected C2C12 cells to collagens and selected Toolkit peptides. Peptides or collagens were coated on ePlates as described, then cells were added in the presence of 2 mM Mg^2 + or EDTA, and Cell Index value was collected over 1 h. […] B: time courses are shown of adhesion to selected Toolkit peptides or GPP-10.
(§1) To quantitate C2C12-α10β1 binding to collagen peptides, we used the impedance-based xCELLigence system (Acea) that allows label-free, dynamic monitoring of cell adhesion in real-time. The assay system expresses the adhesion-dependent rise in well impedance in units of cell index (CI), defined as (Rn − Rb) / 15; where Rn is the electrical impedance of each cell-containing well and Rb is the background impedance of the well with medium alone
Briefly, C2C12 cells were seeded at 2.5 × 10^4 cells/well in an E-plate (Roche Applied Science) pre-coated with peptides as for SPBA, and CI was measured for up to 2 h.

α2β1 = test system: α2β1; parameters: method as in 4 sources, ref [8], [10] = [8]; PMID 16326707; doi:10.1074/jbc.M509818200; 8 Raynal N. Hamaia S.W. Siljander P.R. Maddox B. Peachey A.R. Fernandez R. Foley L.J. Slatter D.A. Jarvis G.E. Farndale R.W. Use of synthetic peptides to locate novel integrin alpha2beta1-binding moti || [10]; PMID 16043429; doi:10.1074/jbc.M502431200; 10 Kim J.K. Xu Y. Xu X. Keene D.R. Gurusiddappa S. Liang X. Wary K.K. Hook M. A novel binding site in collagen type III for the integrins, alpha 1beta 1 and alpha 2beta 1 J. Biol. Chem. 280 2005 32512 ||| ref not given ||| ref [4] = [4]; PMID 19693543; doi:10.1007/s00441-009-0834-6; 4 Barczyk M. Carracedo S. Gullberg D. Integrins Cell Tissue Res. 339 1 2010 269 280 19693543 10.1007/s00441-009-0834-6 PMC2784866 ||| ref [12] = [12]; PMID 22654115; doi:10.1074/jbc.M112.353144; 12 Hamaia S.W. Pugh N. Raynal N. Nemoz B. Stone R. Gullberg D. Bihan D. Farndale R.W. Mapping of potent and specific binding motifs, GLOGEN and GVOGEA, for integrin alpha1beta1 using collagen toolkits; conditions: cited from earlier work
integrin α1β1 = test system: integrin α1β1; parameters: method as in 3 sources, ref [4]; PMID 19693543; doi:10.1007/s00441-009-0834-6; 4 Barczyk M. Carracedo S. Gullberg D. Integrins Cell Tissue Res. 339 1 2010 269 280 19693543 10.1007/s00441-009-0834-6 PMC2784866 ||| ref [12] = [12]; PMID 22654115; doi:10.1074/jbc.M112.353144; 12 Hamaia S.W. Pugh N. Raynal N. Nemoz B. Stone R. Gullberg D. Bihan D. Farndale R.W. Mapping of potent and specific binding motifs, GLOGEN and GVOGEA, for integrin alpha1beta1 using collagen toolkits ||| ref not given; conditions: cited from earlier work
Description: The collagen-binding integrin family is complete, with four established members, α1β1, α2β1, α10β1 and α11β1. These are highly-conserved, heterodimeric receptors with an important structural feature in common, the presence of an I (inserted) domain which contains the metal ion-dependent adhesion site (MIDAS). The MIDAS is a constellation of electronegative residues at the distal surface of this 200-residue domain that, in the resting, non-ligated state, can co-ordinate a Mg^2 + ion. […] Many related motifs have now been identified using the Collagen Toolkits developed in this laboratory for the purpose. These are libraries of overlapping peptides of 27 amino acids of collagen primary sequence (guest sequence), flanked ... || Why would collagen II differ in this respect?

α10β1 [2] = test system: α10β1; parameters: method as in not given; conditions: ref not given; cited from earlier work
Description: In the setting of cartilage, collagen III, although enriched in the pericellular environment, is much less abundant than collagen II [22], and its expression increases with age or with th ...

α10β1 [3] = assay: Overall recognition by α10β1 (I domain and C2C12-α10β1 cells, summary); conditions: abstract and discussion; I domain and/or C2C12-α10β1 cells
Protocol: (§2) I domain adhesion was determined colorimetrically, as described, here termed solid phase binding assay (SPBA). Peptides were coated at 10 μg/ml for 1 h at 22 °C on Immulon-2 HB 96-well plates (Thermo Life Sciences, Basingstoke, UK), and blocked for 1 h with 200 μl of TBS containing 50 mg/ml bovine serum albumin. Wells were washed four times with 200 μl of the adhesion buffer (TBS with 1 mg/ml bovine serum albumin) before adding 100 μl of adhesion buffer containing 10 μg/ml of recombinant GST I domains in the presence of either 2 mM MgCl2 or EDTA for 1 h at room temperature. Wells were washed five times with 200 μl of adhesion buffer containing MgCl2 or EDTA, before adding 100 μl of adhesion buffer containing the anti-GST-HRP conjugate at 1:10,000 dilution for 1 h at room temperature. After washing, colour was developed using an ImmunoPure TMB Substrate Kit (Pierce) according to the manufacturer's instructions.
(§3) The mouse myoblast cell line, C2C12, (control and transfectants, C2C12-α1β1, C2C12-α2β1, C2C12-α10β1 or C2C12-α11β1) was maintained in RPMI medium containing 10% fetal bovine serum, 2 mM glutamine, 100 IU/ml penicillin, 100 μg/ml streptomycin, and 2.5 μg/ml amphotericin. Cells were harvested by centrifugation, washed, and suspended at 0.5 × 10^6/ml in Tris-buffered saline supplemented with 5.5 mM glucose and either 2 mM EDTA or 2 mM MgCl2. SPBA was performed as follows: 100 μl of the cell suspension was added to peptide-coated wells [42] at 20 °C for 60 min. Cell adhesion was determined colorimetrically after lysis, using a lactate dehydrogenase (LDH)-based cell detection kit (Roche Diagnostics) according to the supplier's instructions.
as §1

[4] = test system: collagen-binding integrins; parameters: method as in 3 sources, ref [7], [8] = [7]; PMID 10778855; doi:10.1016/S0092-8674(00)80622-4; 7 Emsley J. Knight C.G. Farndale R.W. Barnes M.J. Liddington R.C. Structural basis of collagen recognition by integrin alpha2beta1 Cell 101 1 2000 47 56 10778855 10.1016/S0092-8674(00)80622-4 || [8]; PMID 16326707; doi:10.1074/jbc.M509818200; 8 Raynal N. Hamaia S.W. Siljander P.R. Maddox B. Peachey A.R. Fernandez R. Foley L.J. Slatter D.A. Jarvis G.E. Farndale R.W. Use of synthetic peptides to locate novel integrin alpha2beta1-binding moti ||| ref [8], [10] = [8]; PMID 16326707; doi:10.1074/jbc.M509818200; 8 Raynal N. Hamaia S.W. Siljander P.R. Maddox B. Peachey A.R. Fernandez R. Foley L.J. Slatter D.A. Jarvis G.E. Farndale R.W. Use of synthetic peptides to locate novel integrin alpha2beta1-binding moti || [10]; PMID 16043429; doi:10.1074/jbc.M502431200; 10 Kim J.K. Xu Y. Xu X. Keene D.R. Gurusiddappa S. Liang X. Wary K.K. Hook M. A novel binding site in collagen type III for the integrins, alpha 1beta 1 and alpha 2beta 1 J. Biol. Chem. 280 2005 32512 ||| ref [11] = [11]; PMID 10986291; doi:10.1074/jbc.M007668200; 11 Xu Y. Gurusiddappa S. Rich R.L. Owens R.T. Keene D.R. Mayne R. Hook A. Hook M. Multiple binding sites in collagen type I for the integrins α1β1 and α2β1 J. Biol. Chem. 275 2000 38981 38989 10986291; conditions: ref [11]; cited from earlier work
Description: Many related motifs have now been identified using the Collagen Toolkits developed in this laboratory for the purpose. These are libraries of overlapping peptides of 27 amino acids of collagen primary sequence (guest sequence), flanked ...

C2C12-α10β1 cells [5] = assay: LDH-based SPBA of C2C12-α10β1 cell adhesion; parameters: species or system mouse; conditions: short THPs, 2 mM Mg^2 +, 1 h, Fig. 4B
Protocol: The mouse myoblast cell line, C2C12-α10β1 clone, expresses α10β1 as its sole collagen-binding integrin [16]. To investigate the binding of α10β1 to collagen in a cellular and whole integrin context, therefore, the adhesion of C2C12-α10β1 cells to Toolkits II and III was performed using two different approaches. First, SPBA was used, with lactate dehydrogenase to report the presence of adherent cells, after lysis, as described in Experimental. […] C2C12-α10B1 cells generally bound more prominently to those weaker peptides that supported just-observable binding of free I-domain. This may reflect avidity of the receptor-populated cell surface for the peptide-coated wells, or perhaps up-regulation of integrin affinity following receptor engagement. It is also possible that some cell binding reflects specific indirect interactions. For example, fibronectin, available either by intrinsic expression or from the serum supplement, binds well to II-44, and can also bind integrin αVβ3 [21].
Fig. 2 Binding of α10β1-transfected C2C12 cells to Collagen Toolkits. 96-well plates were coated with peptides as for Fig. 1, then C2C12-α10β1 cells (5 × 10^4 per well) were added and incubated for 1 h in the presence of either 2 mM MgCl2 or 2 mM EDTA as above. A: binding to Toolkit II. B: binding to Toolkit III.
as §3

[6] = test system: human recombinant GST-α10 I domain; assay: Solid-phase binding assay (SPBA) of wild-type α10 I domain; conditions: short THPs, 2 mM Mg^2 +, 1 h, Fig. 4A
Protocol: The α10 I domain was applied to the collagen II and III Toolkits in the presence or absence of Mg^2 +, and was detected using anti-GST, as described in Experimental: data are shown in Fig. 1. The background response is indicated by wells coated with the control peptide, GPP10 (corresponding to the host sequence), or BSA.
as §2

Which “Cell adhesion to collagens (Cell Index, endpoint)” value (C2C12-α10β1 cells [1]) does the source give for collagen I: intact collagen I here?
The value was “bound quite well”.

And the “Preferred ligand of α2β1” value (α2β1; ref [4])?
Its value is “preferred ligand”.

Which “Preferred ligand of α1β1” value (integrin α1β1; ref [4]) does the source give for collagen IV: intact collagen IV here?
Its value is “preferred ligand”.

What about the “Cell adhesion to collagens (Cell Index, endpoint)” value (C2C12-α10β1 cells [1]) of the same substance?
Its value is “better”.

What about the “Reported binding of α10β1 to collagens” value (α10β1 [2]) of the same substance?
Its value is “better ligand”.

Which “Affinity for integrin α1β1” value (integrin α1β1; ref [12]) does the source give for GVOGEA [integrin motif in collagen II] here?
The value was “moderate ligand”.

And the “Recognition by α10β1, summary” value (α10β1 [3])?
Its value is “moderately good ligand for α10β1”.

What about the “Affinity for α2β1” value (α2β1; ref [12]) of the same substance?
The value was “little affinity for α2β1”.

For “GASGER [integrin motif in collagens I, XXIII]”, which “Ligand of collagen-binding integrins, weak motifs” value [4] is on record?
Its value is “weak ligands”.

With collagen II: intact collagen II as the substance, how does the “Cell adhesion to collagens (Cell Index, endpoint)” value (C2C12-α10β1 cells [1]) read?
Its value is “bound quite well”.

What about the “Reported binding of α10β1 to collagens” value (α10β1 [2]) of the same substance?
Its value is “binds”.

For “GLOGER [short triple-helical peptide containing GLOGER]”, which “Recognition by α10β1, summary” value (α10β1 [3]) is on record?
The value was “binds α10β1 better than GFOGER, second only to GLOGEN; also recorded: α10β1-positive”.

What about the “Adhesion of C2C12-α10β1 cells to short triple-helical peptides” value (C2C12-α10β1 cells [5]) of the same substance?
Its value is “bound strongly”.

And the “Binding of α10 I domain to short triple-helical peptides” value [6]?
The value was “less well”.

For “GLSGER [short triple-helical peptide containing GLSGER]”, which “Recognition by α10β1, summary” value (α10β1 [3]) is on record?
The value was “α10β1-positive”.

What about the “Ligand of collagen-binding integrins, weak motifs” value [4] of the same substance?
The value was “weak ligands”.

And the “Adhesion of C2C12-α10β1 cells to short triple-helical peptides” value (C2C12-α10β1 cells [5])?
Its value is “bound strongly”.
